Counter-ions that a name gives are not always drawn.
Tests used:
Format in all cases: physicochemical
[1] = Therapeutic spreading on unoxidized vs oxidized parylene layer (Example 1)
Description: Referring to FIG. 4, Example 1 is an experiment to compare therapeutic spreading with respect to an unoxidized parylene layer and an oxidized parylene layer. The therapeutic analyte was Doxorubicin-HCl. Doxorubicin-HCl is the salt version of the anti-cancer chemotherapeutic Doxorubicin: (8S,10S)-8-acetyl-10-[(2S,4S,5S,6S)-4-amino-5-hydroxy-6-methyl-oxan-2-yl]oxy-6,8,11,14-tetrahydroxy-1-methoxy-9,10-dihydro-7H-tetracene-5,12-dione, having four fused six member rings of which two are unsaturated and one is a dione and a pendant sugar group The Doxorubicin-HCl has a red color and is easily visualized with no additional modification.
FIG. 5 is plot of therapeutic intensity vs. distance a from the a peripheral margin along a great diameter. Discarding values at the margin, for unoxidized paralyene there are two peaks and three troughs with amplitude variation ranging from about 0.009 to about 0.012 with units being arbitrary values of intensity measurement. In contrast, for oxidized paralyene, there are no significant peaks or troughs and near constant intensity at about 0.008.

[2] = Doxorubicin-HCl elution, multilayer laminate vs single layer barrier, in water and media (Example 5); details: for elution rate: compared with 0.05 gram-layer constructs
[3] = Paclitaxel elution from parylene devices (Example 9); details: uncovered devices (no top layer); PBS, 37 degrees Celsius; judged by visualization of the devices
Description: Referring to FIG. 14, Example 9 is an experiment to test the elution of paclitaxel (taxol). Paclitaxel is smaller hydrophobic molecule drug and has the chemical composition of (2α,4α,5β,7β,10β,13α)-4,10-bis(acetyloxy)-13-{[(2R,3S)-3-(benzoylamino)-2-hydroxy-3-phenylpropanoyl]oxy}-1,7-dihydroxy-9-oxo-5,20-epoxytax-11-en-2-yl benzoate. It is a microtubule stabilizing therapeutic with anti-cancer properties.
A series of trilayer devices were constructed having a top barrier layer having a mass of 0.3, 0.45, or 0.6 gram oxidized parylene.
Devices containing no top layer (uncovered) were not maintained as part of these experiments in that all of the drug is released from uncovered devices within the first 24 hours. […] With rapidly increasing concentration, the paclitaxel rapidly precipitates out of solution (visible by the accumulation of white precipitate) making quantification of the released drug impossible. Drug release from uncovered devices was determinable by the visualization of the devices and noticing the lack of drug on their surfaces.
For each time point, peak absorbance was measured at 230 nanometers at which paclitaxel is readily detectable.

[4] = oxidized parylene relative to unoxidized parylene, 50 μg desiccated, two replicates

| radius of stained area [1, 4] | surface area of stained area [1, 4] | drug release vs single layer device of 0.05 gram laminate ([2]; media, multilayer laminate 3×0.05 grams) | drug release vs single layer device of 0.05 gram laminate ([2]; media, multilayer laminate 5×0.05 grams) | drug release vs single layer device of 0.05 gram laminate ([2]; media, multilayer laminate 7×0.05 grams) | elution profile compared among constructs ([2]; media, multilayer laminate constructs of 3×0.05, 5×0.05 and 7×0.05 grams) | drug release ([2]; media, single layer laminate device of 0.15 grams, regular parylene C) | drug release ([2]; media, single layer laminate device of 0.25 grams, regular parylene C) | drug release ([2]; media, single layer laminate device of 0.35 grams, regular parylene C) | elution profile compared among constructs ([2]; water, constructs of 1×0.05, 3×0.05, 5×0.05 and 7×0.05 grams) | elution rate ([2]; water, single layer laminate device of 0.15 grams) | elution rate ([2]; water, single layer laminate device of 0.25 grams) | drug release ([2]; water, single layer laminate device of 0.35 grams) | time within which all of the drug is released [3] [h] | Structure (SMILES) | therapeutic intensity ([1]; oxidized parylene, no significant peaks or troughs, near constant) |
| --- | --- | --- | --- | --- | --- | --- | --- | --- | --- | --- | --- | --- | --- | --- | --- |
| about twice the radius | four times the surface area | release less drug | release less drug | release less drug | approximately the same elution profile | do not release the drug | do not release the drug | do not release the drug | approximately the same elution profile | slower elution | slower elution | does not release the drug |  | COc1cccc2c1C(=O)c1c(O)c3c(c(O)c1C2=O)C[C@@](O)(C(=O)CO)C[C@@H]3O[C@H]1C[C@H](N)[C@H](O)[C@H](C)O1 [Doxorubicin-HCl] | about 0.008 arbitrary values of intensity measurement |
|  |  |  |  |  |  |  |  |  |  |  |  |  | ≤ 24 | CC(=O)O[C@H]1C(=O)[C@@]2(C)[C@H]([C@H](OC(=O)c3ccccc3)[C@]3(O)C[C@H](OC(=O)[C@H](O)[C@@H](NC(=O)c4ccccc4)c4ccccc4)C(C)=C1C3(C)C)[C@]1(OC(C)=O)CO[C@@H]1C[C@@H]2O [paclitaxel, (2α,4α,5β,7β,10β,13α)-4,10-bis(acetyloxy)-13-{[(2R,3S)-3-(benzoylamino)-2-hydroxy-3-phenylpropanoyl]oxy}-1,7-dihydroxy-9-oxo-5,20-epoxytax-11-en-2-yl benzoate] |  |

Source: patent US9040071B2, “Pary-xylene based microfilm elution devices” (Cute Lovable Teddy Bear, LLC., priority 2009, dated 2015)
